From US12097215B2, “Antibacterial composition and its use in treating bacterial infections” (Vector Vitale IP LLC, priority 2017, dated 2024)
Values after ≈ are worked out from the molar mass of the structure shown. Like-named read-outs stand apart in the source and are kept apart here. Marks after values point to notes of the source that are not given here. Blank lines part the entries; values can stand above or below the compound they belong to.

Columns and labels:
S. aureus ATCC 25923 [1] = test: MIC by serial dilutions in broth (visible growth); format: cell-based;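 also: broth tubes inoculated at about 5×10^5 CFU/ml, incubated 16-24 h at 35 °C in air, growth judged by transmitted light against an unexposed refrigerated inoculum tube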
Method: (§4) The minimum inhibitory concentration (MIC) and minimum bactericidal concentration (MBC) of the antibacterial composition enriched for the light isotope zinc ^64Zne was evaluated in the experiment. […] S. aureus ATCC 25923, E. coli ATCC 25922 and P. aeruginosa ATCC 27853 were used as test cultures.
(§5) The studies were carried out using the method of serial dilutions in broth. To determine sensitivity of microorganisms to the antibacterial composition, 0.5 ml of broth was placed into each tube. The number of tubes was determined based on the desired number of dilutions and was increased by one for the “negative” control (no test composition). Series of two-fold serial dilutions of the test variants of the antibacterial composition were used and concentrations ranging from 450 mcg ^64Zne/ml to 0.000107 mcg ^64Zne/ml were obtained.
(§6) Reference test strains of S. aureus ATCC 25923, E. coli ATCC 25922 and P. aeruginosa ATCC 27853 were incubated in Mueller-Hinton liquid broth at 37° C. for 24 hours. Standard bacterial suspension equivalent to 0.5 McFarland standard diluted 100-fold with the broth was used for the inoculation of the tubes after which the concentration of microorganism in it was approximately 10^6 CFU/ml.
(§7) 0.5 ml of inoculum was added to each tube containing 0.5 ml of the appropriate dilution of a solution of the ^64Zn-enriched salt of interest. […] The final concentration of the microorganism in each tube was approximately 5×10^5 CFU/ml.
(§8) The tubes were incubated at 35° C. in air for 16-20 or 20-24 hours (depending on the bacterial strain).
(§9) To determine the presence of microorganism growth the test tubes with inoculum were viewed under transmitted light. Transmitted light was measured by spectrophotometry. The growth of culture in the presence of antibacterial compositions based on ^64Zne was compared with the reference test tube (“negative” control), containing the original inoculum and stored in the refrigerator. The MIC was determined as the lowest concentration of ^64Zne that inhibits visible growth of the microorganism. Both gram-positive (S. aureus) and gram-negative bacteria (P. aeruginosa, E. coli) were used in the experiments described below.
(§10) That is, ^64Zne in the form of a salt was compared with a composition that contains zinc with a natural distribution of isotopes. […] Relevant samples containing salt of natural zinc with EDDA and natural zinc sulfate were used for the comparison.
(§11) The following commercial antibacterial medications were used for the study: azithromycin and ceftriaxone and norfloxacin. The initial concentration of 3000 mcg/ml was used for the samples of all the above compounds. […] Serial dilutions of the above antibacterial compounds were also prepared in the same way as for the antibacterial composition of the invention. The same pathogenic strains of S. aureus ATCC 25923, E. coli ATCC 25922, P. aeruginosa ATCC 27853 were used for the study.

E. coli ATCC 25922 [2] = test: MIC by serial dilutions in broth (visible growth); format: cell-based;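 also: broth tubes inoculated to about 5×10^5 CFU/ml, incubated at 35 °C for 16-24 h, growth judged by transmitted light versus an untreated inoculum reference tube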
Method: as §4, §5, §6, §7, §8, §9, §10, §11

S. aureus ATCC 25923 [3] = test: MBC by plating tube contents on Mueller-Hinton medium; format: cell-based
Method: (§1) To evaluate the bactericidal action of the antibacterial composition based on light isotope ^64Zne the minimum bactericidal concentration (MBC) was determined by plating out 0.1 ml of the contents of each tube containing the antibacterial composition on Mueller-Hinton medium. The incubation was at 37° C. for 24 h.
(§2) The MBC of the test samples was determined as the lowest concentration at which there was no growth on Mueller-Hinton agar medium.

E. coli ATCC 25922 [4] = test: as above; format: cell-based
Method: as §1, §2

P. aeruginosa ATCC 27853 [5] = test: as above; format: cell-based
Method: as §1, §2

P. aeruginosa ATCC 27853 [6] = test: MIC by serial dilutions in broth (visible growth)
Method: as §4, §5, §6, §7, §8, §9, §10, §11

E. coli ATCC 25922 [7] = test: MIC of deuterium-depleted water by serial dilutions in normal saline solution; format: cell-based; settings: basic solution, 10^4, 10^6, 10^8 cells/ml
Method: (§3) The minimum inhibitory concentration (MIC) of deuterium-depleted water was determined by serial dilutions in normal saline solution. Reference strains of E. coli ATCC 25922 and P. aeruginosa ATCC 27859 were used as test cultures. For inoculation, microbial suspension equivalent to a 0.5 standard McFarland (1.5×10^8 cells/ml) was used. Then the dilutions with normal saline solution were prepared so that the concentration of microorganisms reached approximately 10^4 cells/ml. The test cultures were previously grown for 24 hours at 37° C. One-tenth of a milliliter (0.1 ml) of the suspension was placed into each test tube containing 4 ml of the medium with the investigative active substance at a certain concentration (without deuterium-depleted water in the control). The tubes were incubated in an incubator at 37° C. for 24 hours. After incubation the inoculum from each tube was plated on Mueller-Hinton agar medium for P. aeruginosa and on Endo for E. coli and incubated at 37° C. for another 24 hours. The results were evaluated based on the presence of bacterial growth (turbidity) in the nutrient broth and, if necessary, by using other additional known bacteriological tests. The first few tubes remained transparent due to the antimicrobial effect of the study substance. […] The results are shown in the table below and illustrated in FIGS. 5b and 5c.

P. aeruginosa ATCC 27859 = test: as above; format: cell-based; settings: basic solution, 10^4, 10^6, 10^8 cells/ml; text names ATCC 27853
Method: as §3

[8] = Table 7, ^64Zne vs natural zinc
[9] = concentration of ^64Zne, Tables 1-5
[10] = Table 8, ^64Zne vs natural zinc
[11] = Staphylococcus aureus, ATCC25923, Table 9, commercial antibacterial agents, read-out: MIC
[12] = Escherichia coli, ATCC25922, Table 9, commercial antibacterial agents, read-out: MIC
[13] = Staphylococcus aureus, ATCC25923, Table 10, commercial antibacterial agents, read-out: MBC
[14] = Escherichia coli, ATCC25922, Table 10, commercial antibacterial agents, read-out: MBC
[15] = Pseudomonas aeruginosa, ATCC27853, Table 10, commercial antibacterial agents, read-out: MBC
[16] = Pseudomonas aeruginosa, ATCC27853

SMILES: O=S(=O)([O-])[O-].[64Zn+2] [^64Zne sulfate]
visible growth (S. aureus ATCC 25923 [1]): − and +
MIC (S. aureus ATCC 25923 [1]; [8]): 0.366 zinc/ml
visible growth (S. aureus ATCC 25923 [1]; ^64Zne 0.00036 mcg/ml): +
visible growth (S. aureus ATCC 25923 [1]; ^64Zne 0.00072 mcg/ml): +
visible growth (S. aureus ATCC 25923 [1]; ^64Zne 0.0014 mcg/ml): +
visible growth (S. aureus ATCC 25923 [1]; ^64Zne 0.0029 mcg/ml): +
visible growth (S. aureus ATCC 25923 [1]; ^64Zne 0.011 mcg/ml): +
visible growth (S. aureus ATCC 25923 [1]; ^64Zne 0.023 mcg/ml): +
visible growth (S. aureus ATCC 25923 [1]; ^64Zne 0.046 mcg/ml): +
visible growth (S. aureus ATCC 25923 [1]; ^64Zne 0.37 mcg/ml): −
visible growth (S. aureus ATCC 25923 [1]; ^64Zne 1.46 mcg/ml): −
visible growth (S. aureus ATCC 25923 [1]; ^64Zne 2.93 mcg/ml): −
visible growth (S. aureus ATCC 25923 [1]; ^64Zne 5.86 mcg/ml): −
visible growth (S. aureus ATCC 25923 [1]; ^64Zne 11.72 mcg/ml): −
visible growth (S. aureus ATCC 25923 [1]; ^64Zne 23.44 mcg/ml): −
visible growth (S. aureus ATCC 25923 [1]; ^64Zne 46.88 mcg/ml): −
visible growth (S. aureus ATCC 25923 [1]; ^64Zne 93.75 mcg/ml): −
visible growth (S. aureus ATCC 25923 [1]; ^64Zne 187.5 mcg/ml): −
visible growth (S. aureus ATCC 25923 [1]; ^64Zne 375 mcg/ml): −
visible growth (S. aureus ATCC 25923 [1]; ^64Zne 750 mcg/ml): −
MIC (S. aureus ATCC 25923 [1]; [9]): 0.366 µg/mL
visible growth (E. coli ATCC 25922 [2]): − and +
MIC (E. coli ATCC 25922 [2]; [8]): 0.0916 zinc/ml
visible growth (E. coli ATCC 25922 [2]; ^64Zne 0.00036 mcg/ml): +
visible growth (E. coli ATCC 25922 [2]; ^64Zne 0.00072 mcg/ml): +
visible growth (E. coli ATCC 25922 [2]; ^64Zne 0.0014 mcg/ml): +
visible growth (E. coli ATCC 25922 [2]; ^64Zne 0.0029 mcg/ml): +
visible growth (E. coli ATCC 25922 [2]; ^64Zne 0.011 mcg/ml): +
visible growth (E. coli ATCC 25922 [2]; ^64Zne 0.023 mcg/ml): +
visible growth (E. coli ATCC 25922 [2]; ^64Zne 0.046 mcg/ml): +
visible growth (E. coli ATCC 25922 [2]; ^64Zne 0.092 mcg/ml): −
visible growth (E. coli ATCC 25922 [2]; ^64Zne 0.37 mcg/ml): −
visible growth (E. coli ATCC 25922 [2]; ^64Zne 0.73 mcg/ml): −
visible growth (E. coli ATCC 25922 [2]; ^64Zne 1.46 mcg/ml): −
visible growth (E. coli ATCC 25922 [2]; ^64Zne 2.93 mcg/ml): −
visible growth (E. coli ATCC 25922 [2]; ^64Zne 5.86 mcg/ml): −
visible growth (E. coli ATCC 25922 [2]; ^64Zne 11.72 mcg/ml): −
visible growth (E. coli ATCC 25922 [2]; ^64Zne 23.44 mcg/ml): −
visible growth (E. coli ATCC 25922 [2]; ^64Zne 46.88 mcg/ml): −
visible growth (E. coli ATCC 25922 [2]; ^64Zne 93.75 mcg/ml): −
visible growth (E. coli ATCC 25922 [2]; ^64Zne 187.5 mcg/ml): −
visible growth (E. coli ATCC 25922 [2]; ^64Zne 375 mcg/ml): −
visible growth (E. coli ATCC 25922 [2]; ^64Zne 750 mcg/ml): −
visible growth (E. coli ATCC 25922 [2]; ^64Zne 1500 mcg/ml): −
MIC (E. coli ATCC 25922 [2]; [9]): 0.0916 µg/mL
MBC (S. aureus ATCC 25923 [3]; Table 6): 0.37* mcg ^64Zne/ml
MBC (S. aureus ATCC 25923 [3]; [10]): 0.3662 mcg zinc/ml
MBC (E. coli ATCC 25922 [4]; Table 6): 1.46* mcg ^64Zne/ml
MBC (E. coli ATCC 25922 [4]; [10]): 1.4648 mcg zinc/ml
bactericidal activity (in words) (P. aeruginosa ATCC 27853 [5]): satisfactory bactericidal activity
MBC (P. aeruginosa ATCC 27853 [5]; Table 6): 375 mcg ^64Zne/ml
MBC (P. aeruginosa ATCC 27853 [5]; [10]): 375 mcg zinc/ml
MIC (P. aeruginosa ATCC 27853 [6]; [8]): 46.875 zinc/ml
MIC (P. aeruginosa ATCC 27853 [6]; [9]): 46.875 µg/mL

SMILES: CC[C@H]1OC(=O)[C@H](C)[C@@H](O[C@H]2C[C@@](C)(OC)[C@@H](O)[C@H](C)O2)[C@H](C)[C@@H](O[C@@H]2O[C@H](C)C[C@H](N(C)C)[C@H]2O)[C@](C)(O)C[C@@H](C)CN(C)[C@H](C)[C@@H](O)[C@]1(C)O [azithromycin, reference compound]
MIC (S. aureus ATCC 25923 [1]; [11]): 188 µg/mL (≈ 250 µM)
MIC (E. coli ATCC 25922 [2]; [12]): 1500 µg/mL (≈ 2000 µM)
MBC (S. aureus ATCC 25923 [3]; [13]): < 1500 µg/mL
MBC (E. coli ATCC 25922 [4]; [14]): < 1500 µg/mL
MBC (P. aeruginosa ATCC 27853 [5]; [15]): < 1500 µg/mL
MIC (P. aeruginosa ATCC 27853 [6]; [16]): 1500 µg/mL (≈ 2000 µM)

SMILES: O [deuterium-depleted water]
bactericidal effect (in words) (E. coli ATCC 25922 [7]): bactericidal effect
bactericidal effect (in words) (P. aeruginosa ATCC 27859): bactericidal effect

Further lines, with some results ahead:

MIC (S. aureus ATCC 25923 [1]; [11]): 11.7 µg/mL (≈ 21.1 µM)
MIC (E. coli ATCC 25922 [2]; [12]): 2.93 µg/mL (≈ 5.28 µM)
MIC (P. aeruginosa ATCC 27853 [6]; [16]): 750 µg/mL (≈ 1350 µM)
SMILES: CO/N=C(\C(=O)N[C@@H]1C(=O)N2C(C(=O)O)=C(CSc3nc(=O)c(=O)[nH]n3C)CS[C@H]12)c1csc(N)n1 [ceftriaxone, reference compound]
MBC (S. aureus ATCC 25923 [3]; [13]): 375 µg/mL (≈ 676 µM)
MBC (E. coli ATCC 25922 [4]; [14]): 11.7 µg/mL (≈ 21.1 µM)
MBC (P. aeruginosa ATCC 27853 [5]; [15]): < 1500 µg/mL

MIC (S. aureus ATCC 25923 [1]; [11]): 11.7 µg/mL (≈ 36.7 µM)
MIC (E. coli ATCC 25922 [2]; [12]): 23.4 µg/mL (≈ 73.4 µM)
MIC (P. aeruginosa ATCC 27853 [6]; [16]): 188 µg/mL (≈ 587 µM)
SMILES: CCn1cc(C(=O)O)c(=O)c2cc(F)c(N3CCNCC3)cc21 [norfloxacin, reference compound]
MBC (S. aureus ATCC 25923 [3]; [13]): < 1500 µg/mL
MBC (E. coli ATCC 25922 [4]; [14]): < 1500 µg/mL
MBC (P. aeruginosa ATCC 27853 [5]; [15]): < 1500 µg/mL
